In PubChem BioAssay AID1845207 (Molecular Pharmacology Branch, DTP, NCI, 2023):

System: NCI-H1876 tumor spheroid viability
Assay: Anticancer human tumor NCI-H1876 cell line growth inhibition;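 also: spheroids exposed to compounds for seven days before the viability read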;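 as to viability, T/C: percent of DMSO vehicle control viability so 100% = vehicle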
Conditions: spheroids with HUVEC and MSC; for IC50: curve of first compound; for viability, T/C: stronger effect = lower value; active = viability on the fitted dose curve at most 10% of control; inactive = the rest
In short: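 Single agents and combinations were tested on spheroids built from tumor cells plus HUVEC and hMSC, at half-log dilutions starting at or near clinical Cmax, else 10 microM; final DMSO 0.25% (v/v).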

[1] = second compound 0.003 µM, first compound 0.0316 µM
[2] = second compound 0.003 µM, first compound 0.1 µM
[3] = second compound 0.003 µM, first compound 0.316 µM
[4] = second compound 0.003 µM, first compound 1 µM
[5] = second compound 0.003 µM, first compound 3.16 µM
[6] = second compound 0.003 µM, first compound 10 µM

Cc1cc(C)c(CNC(=O)c2cc(-c3ccc(CN4CCOCC4)cc3)cc3c2cnn3C2CCCC2)c(=O)[nH]1 + COc1cc2c(cc1O)CCNC21CSC2c3c(OC(C)=O)c(C)c4c(c3C(COC1=O)N1C(O)C3Cc5cc(C)c(OC)c(O)c5C(C21)N3C)OCO4
active: viability, T/C (second compound 0.000949 µM, first compound 0.0316 µM) 2.79% | viability, T/C (second compound 0.000949 µM, first compound 0.1 µM) 5.13% | viability, T/C (second compound 0.000949 µM, first compound 0.316 µM) 3.54% | viability, T/C (second compound 0.000949 µM, first compound 1 µM) 3.83% | viability, T/C (second compound 0.000949 µM, first compound 3.16 µM) 3.88% | viability, T/C (second compound 0.000949 µM, first compound 10 µM) 4.21% | viability, T/C [1] 0.62% | viability, T/C [2] 0.99% | viability, T/C [3] 0.83% | viability, T/C [4] 1.17% | viability, T/C [5] 0.68% | viability, T/C [6] 0.88%
> 10000 nM: IC50 (second compound 30 pM) | IC50 (second compound 94.9 pM)
< 31.6 nM: IC50 (second compound 0.0003 µM) | IC50 (second compound 0.000949 µM) | IC50 (second compound 0.003 µM)
inactive: viability, T/C (second compound 30 pM, first compound 0.0316 µM) 103% | viability, T/C (second compound 30 pM, first compound 0.1 µM) 101% | viability, T/C (second compound 30 pM, first compound 0.316 µM) 104% | viability, T/C (second compound 30 pM, first compound 1 µM) 104% | viability, T/C (second compound 30 pM, first compound 3.16 µM) 104% | viability, T/C (second compound 30 pM, first compound 10 µM) 85.3% | viability, T/C (second compound 94.9 pM, first compound 0.0316 µM) 93.1% | viability, T/C (second compound 94.9 pM, first compound 0.1 µM) 94.2% | viability, T/C (second compound 94.9 pM, first compound 0.316 µM) 94.1% | viability, T/C (second compound 94.9 pM, first compound 1 µM) 91.5% | viability, T/C (second compound 94.9 pM, first compound 3.16 µM) 93.2% | viability, T/C (second compound 94.9 pM, first compound 10 µM) 63.8% | viability, T/C (second compound 0.0003 µM, first compound 0.0316 µM) 29.7% | viability, T/C (second compound 0.0003 µM, first compound 0.1 µM) 33.7% | viability, T/C (second compound 0.0003 µM, first compound 0.316 µM) 34.9% | viability, T/C (second compound 0.0003 µM, first compound 1 µM) 27.2% | viability, T/C (second compound 0.0003 µM, first compound 3.16 µM) 28.6% | viability, T/C (second compound 0.0003 µM, first compound 10 µM) 17.4%

Cc1cc(C)c(CNC(=O)c2cc(-c3ccc(CN4CCOCC4)cc3)cc3c2cnn3C2CCCC2)c(=O)[nH]1 + CC[C@@]1(O)C(=O)OCc2c1cc1n(c2=O)Cc2cc3c(CN(C)C)c(O)ccc3nc2-1
< 31.6 nM: IC50 (second compound 0.00949 µM) | IC50 (second compound 0.03 µM) | IC50 (second compound 0.0949 µM) | IC50 (second compound 0.3 µM)
inactive: viability, T/C [1] 78.6% | viability, T/C [2] 70% | viability, T/C [3] 56.6% | viability, T/C [4] 39% | viability, T/C [5] 27.7% | viability, T/C [6] 10.5% | viability, T/C (second compound 0.00949 µM, first compound 0.0316 µM) 40.9% | viability, T/C (second compound 0.00949 µM, first compound 0.1 µM) 39.6% | viability, T/C (second compound 0.00949 µM, first compound 0.316 µM) 35.1% | viability, T/C (second compound 0.00949 µM, first compound 1 µM) 26.2% | viability, T/C (second compound 0.00949 µM, first compound 3.16 µM) 22% | viability, T/C (second compound 0.00949 µM, first compound 10 µM) 10.5% | viability, T/C (second compound 0.03 µM, first compound 0.0316 µM) 15.6% | viability, T/C (second compound 0.03 µM, first compound 0.1 µM) 15.2% | viability, T/C (second compound 0.03 µM, first compound 0.316 µM) 17.6% | viability, T/C (second compound 0.03 µM, first compound 1 µM) 17.8% | viability, T/C (second compound 0.03 µM, first compound 3.16 µM) 16.5% | viability, T/C (second compound 0.03 µM, first compound 10 µM) 9.6% | viability, T/C (second compound 0.0949 µM, first compound 0.0316 µM) 8.57% | viability, T/C (second compound 0.0949 µM, first compound 0.1 µM) 9.17% | viability, T/C (second compound 0.0949 µM, first compound 0.316 µM) 10.2% | viability, T/C (second compound 0.0949 µM, first compound 1 µM) 12.2% | viability, T/C (second compound 0.0949 µM, first compound 3.16 µM) 12% | viability, T/C (second compound 0.0949 µM, first compound 10 µM) 11.9%
509 nM: IC50 (second compound 0.003 µM)
active: viability, T/C (second compound 0.3 µM, first compound 0.0316 µM) 3.79% | viability, T/C (second compound 0.3 µM, first compound 0.1 µM) 4.57% | viability, T/C (second compound 0.3 µM, first compound 0.316 µM) 4.59% | viability, T/C (second compound 0.3 µM, first compound 1 µM) 6.24% | viability, T/C (second compound 0.3 µM, first compound 3.16 µM) 7.93% | viability, T/C (second compound 0.3 µM, first compound 10 µM) 7.45%

Cn1ncnc1[C@H]1c2n[nH]c(=O)c3cc(F)cc(c23)N[C@@H]1c1ccc(F)cc1 + COc1cc2c(cc1O)CCNC21CSC2c3c(OC(C)=O)c(C)c4c(c3C(COC1=O)N1C(O)C3Cc5cc(C)c(OC)c(O)c5C(C21)N3C)OCO4
< 9.49 nM: IC50 (second compound 94.9 pM) | IC50 (second compound 0.0003 µM) | IC50 (second compound 0.000949 µM) | IC50 (second compound 0.003 µM)
inactive: viability, T/C (second compound 30 pM, first compound 0.00949 µM) 80.3% | viability, T/C (second compound 30 pM, first compound 0.03 µM) 53.5% | viability, T/C (second compound 30 pM, first compound 0.0949 µM) 28.6% | viability, T/C (second compound 30 pM, first compound 0.3 µM) 11.9% | viability, T/C (second compound 94.9 pM, first compound 0.00949 µM) 47.9% | viability, T/C (second compound 94.9 pM, first compound 0.03 µM) 28.1% | viability, T/C (second compound 94.9 pM, first compound 0.0949 µM) 15.5% | viability, T/C (second compound 0.0003 µM, first compound 0.00949 µM) 11.8%
35.5 nM: IC50 (second compound 30 pM)
active: viability, T/C (second compound 30 pM, first compound 0.949 µM) 6.01% | viability, T/C (second compound 30 pM, first compound 3 µM) 3.44% | viability, T/C (second compound 94.9 pM, first compound 0.3 µM) 7.46% | viability, T/C (second compound 94.9 pM, first compound 0.949 µM) 5.44% | viability, T/C (second compound 94.9 pM, first compound 3 µM) 2.76% | viability, T/C (second compound 0.0003 µM, first compound 0.03 µM) 7.22% | viability, T/C (second compound 0.0003 µM, first compound 0.0949 µM) 5.49% | viability, T/C (second compound 0.0003 µM, first compound 0.3 µM) 4.25% | viability, T/C (second compound 0.0003 µM, first compound 0.949 µM) 5.23% | viability, T/C (second compound 0.0003 µM, first compound 3 µM) 2.79% | viability, T/C (second compound 0.000949 µM, first compound 0.00949 µM) 2.86% | viability, T/C (second compound 0.000949 µM, first compound 0.03 µM) 3.01% | viability, T/C (second compound 0.000949 µM, first compound 0.0949 µM) 2.85% | viability, T/C (second compound 0.000949 µM, first compound 0.3 µM) 3.24% | viability, T/C (second compound 0.000949 µM, first compound 0.949 µM) 2.36% | viability, T/C (second compound 0.000949 µM, first compound 3 µM) 1.56% | viability, T/C (second compound 0.003 µM, first compound 0.00949 µM) 0.64% | viability, T/C (second compound 0.003 µM, first compound 0.03 µM) 0.8% | viability, T/C (second compound 0.003 µM, first compound 0.0949 µM) 0.45% | viability, T/C (second compound 0.003 µM, first compound 0.3 µM) 0.68% | viability, T/C (second compound 0.003 µM, first compound 0.949 µM) 1.05% | viability, T/C (second compound 0.003 µM, first compound 3 µM) 0.79%
